{"source": "patent US20050004216A1", "about": "“Treating asthma, chronic obstructive pulmonary disease and/or other respiratory difficulties” (priority 2001, published 2005)", "key": {"[1]": {"tested_on": "asthma, chronic obstructive pulmonary disease and/or other respiratory difficulties", "assay": "Trial examples: oral capsules in patients with asthma and/or chronic obstructive pulmonary disease", "type": "in vivo, human", "conditions": "trials with a variety of patients; dosage forms of cetyl myristate alone", "from_the_text": "Examples of use follows. […] That mixture comprises by weight 95% cetyl myristate and 5% cetyl palmitate by weight manufactured by the process as disclosed in NZ Patent Specification No. 332959. In addition added excipients were present in the admixture and then encapsulated in the non gelatin two part capsule case."}, "[2]": {"conditions": "laboratory experiments; reference to website www.gcinutrients.com; cited from earlier work"}}}
{"smiles": "CCCCCCCCCCCCCCCCOC(=O)CCCCCCCCCCCCC", "note": "[cetyl myristate]", "values": [{"measurement": "relief from the symptoms of asthma, chronic obstructive pulmonary disease and/or other respiratory difficulties", "setting": "[1]", "result": "favourable responses"}, {"measurement": "anti-arthritic activity", "setting": "[2]", "result": "negligible"}]}
